Columns and labels:
hNEIL2 [1] = target: T1, hNEIL2 (Homo sapiens, UniProt Q969S2); experiment: PAR assay, 2TX-induced Zn2+ release, A500; format: binding; conditions: free enzyme without DNA; 5 μM enzyme, 10 mM 2TX, 100 μM PAR, 25 mM Hepes/KOH pH 7.5, 70 mM KCl, 8% DMSO, room temperature; covalent
T1 construct: gene NEIL2; 6His-hNEIL2 fusion, vector pPR363, expressed in E. coli BL21CodonsPlus; CHC2-type zinc finger
T1 sequence (Q969S2 1-332): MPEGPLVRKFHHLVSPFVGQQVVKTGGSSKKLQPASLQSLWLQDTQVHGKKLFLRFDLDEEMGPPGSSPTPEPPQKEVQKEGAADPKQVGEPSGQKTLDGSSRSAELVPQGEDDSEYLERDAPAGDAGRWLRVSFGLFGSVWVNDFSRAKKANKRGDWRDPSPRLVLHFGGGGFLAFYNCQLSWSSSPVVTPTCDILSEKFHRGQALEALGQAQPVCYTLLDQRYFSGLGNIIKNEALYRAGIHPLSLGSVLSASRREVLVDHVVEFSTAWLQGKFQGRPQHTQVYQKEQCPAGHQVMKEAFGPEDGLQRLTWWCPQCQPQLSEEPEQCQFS
From the text: PAR assay, 2TX-induced Zn2+ release, A500 on hNEIL2

EcNei [2] = target: T2, EcNei (Escherichia coli, UniProt P50465); experiment: PAR assay, 2TX-induced Zn2+ release, A500; format: binding; conditions: free enzyme without DNA; 5 μM enzyme, 10 mM 2TX, 100 μM PAR, 25 mM Hepes/KOH pH 7.5, 70 mM KCl, 8% DMSO, room temperature; covalent
T2 construct: gene nei; full-length, C-terminal 6His-tag, pET22b derivative, expressed in E. coli BL21(DE3)
T2 sequence (P50465 2-263): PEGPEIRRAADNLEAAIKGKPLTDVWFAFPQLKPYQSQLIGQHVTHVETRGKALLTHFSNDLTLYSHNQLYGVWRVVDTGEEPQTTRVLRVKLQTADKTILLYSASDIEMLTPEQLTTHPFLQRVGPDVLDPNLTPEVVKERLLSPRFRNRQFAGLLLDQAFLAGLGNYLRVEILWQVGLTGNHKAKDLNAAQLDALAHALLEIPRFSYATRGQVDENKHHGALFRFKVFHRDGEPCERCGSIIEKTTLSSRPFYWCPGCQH
From the text: PAR assay, 2TX-induced Zn2+ release, A500 on EcNei

EcNei [3] = target: T2, EcNei; experiment: Hyd-DNA glycosylase assay, […]-labelled 24-mer, Urea-PAGE; format: biochemical; conditions: Hyd:G double-stranded DNA, 30 min, 37°C, 8% DMSO
LlFpg [4] = target: T3, LlFpg (Lactococcus cremoris, UniProt P42371); experiment: PAR assay, 2TX-induced Zn2+ release, A500; format: binding; conditions: free enzyme without DNA; 5 μM enzyme, 10 mM 2TX, 100 μM PAR, 25 mM Hepes/KOH pH 7.5, 70 mM KCl, 8% DMSO, room temperature; covalent
T3 construct: gene mutM; full-length recombinant from pFlag-CTC-WT-LlFpg, E. coli BH540 (fpg mutY) host, purified to homogeneity; zinc finger C245/C248/C265/C268
T3 sequence (P42371 2-273): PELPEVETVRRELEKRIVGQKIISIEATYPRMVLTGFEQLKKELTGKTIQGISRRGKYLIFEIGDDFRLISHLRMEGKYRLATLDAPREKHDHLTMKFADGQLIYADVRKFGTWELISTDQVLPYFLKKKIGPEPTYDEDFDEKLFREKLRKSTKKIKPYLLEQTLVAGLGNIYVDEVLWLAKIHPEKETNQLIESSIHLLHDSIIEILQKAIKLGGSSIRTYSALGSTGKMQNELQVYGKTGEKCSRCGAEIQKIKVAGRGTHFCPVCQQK
From the text: PAR assay, 2TX-induced Zn2+ release, A500 on LlFpg

hNEIL2 [5] = target: T1, hNEIL2; experiment: Hyd-DNA glycosylase assay, […]-labelled 24-mer, Urea-PAGE; format: biochemical; conditions: Hyd single-stranded DNA, 30 min, 37°C, 8% DMSO
LlFpg [6] = target: T3, LlFpg; experiment: X-ray crystal structures of LlFpg/DNA treated with 2TX ([…] Å THF-DNA; […] Å Bz-cFapyG-DNA); format: binding; conditions: covalent disulfide to C248 (THF-DNA) or C268 (Bz-cFapyG-DNA); stacks on W179; outside active site; zinc lost
LlFpg [7] = target: T3, LlFpg; experiment: 8-oxoG-DNA glycosylase assay, […]-labelled 24-mer, gel; format: biochemical; conditions: 5 nM enzyme, 25 nM 8-oxoG-DNA, 0-250 μM 2TX, 30 min, 37°C, 8% DMSO
[8] = target: T4, LlFpg WT (Lactococcus lactis) (UniProt P42371); experiment: EMSA; conditions: apparent Kd, N at position 7 of strand 1 = tetrahydrofuran (THF) abasic site analogue, opposite C, EMSA: 0.1 nM 32P-labelled 14-mer THF-DNA, 0-16 nM LlFpg (2 nM in 2TX assays), 20 min at 4 C / on ice, with or without 8% DMSO, buffer and pH as in cited …
T4 sequence: T3 sequence (P42371 2-273)

| Molecule | kobs (min^-1)^a / - DNA (hNEIL2 [1]) | kobs (min^-1)^a / - DNA (EcNei [2]) | Hyd-DNA glycosylase assay, 32P-labelled 24-mer, Urea-PAGE (EcNei [3]) | kobs (min^-1)^a / - DNA (LlFpg [4]) | Hyd-DNA glycosylase assay, 32P-labelled 24-mer, Urea-PAGE (hNEIL2 [5]) | X-ray crystal structures of LlFpg/DNA treated with 2TX (2.4 Å THF-DNA); 2.1 Å Bz- (LlFpg [6]) | 8-oxoG-DNA glycosylase assay, 32P-labelled 24-mer, gel (LlFpg [7]) | Kd ([8]; 8% DMSO) | Kd ([8]; without DMSO) |
| --- | --- | --- | --- | --- | --- | --- | --- | --- | --- |
| O=c1[nH]c(=S)[nH]c2nc[nH]c12 [2TX, 2-thioxanthine] | 0.180 ± 0.002 min⁻¹ | 0.296 ± 0.001 min⁻¹ | The Hyd-DNA glycosylase activity of EcNei and hNEIL2 were also strongly inhibited by 2TX | 0.073 ± 0.001 min⁻¹ | The Hyd-DNA glycosylase activity of EcNei and hNEIL2 were also strongly inhibited by 2TX | a 2TX molecule covalently bound to C268 was easily modeled in the electron density map | excision of 8-oxoG from 24-mer DNA duplex (Supplementary Figure S2) by LlFpg was inhibited |  |  |
| CTCTTTNTTTCTCG / GCGAGAAACAAAGA [14-mer THF-DNA] |  |  |  |  |  |  |  | 3 nM | 10 nM |

— article PMC4176347, “Zinc finger oxidation of Fpg/Nei DNA glycosylases by 2-thioxanthine: biochemical and X-ray structural characterization” (Nucleic Acids Research, 2014)
